Test results: PubChem BioAssay AID1963851 (Molecular Pharmacology Branch, DTP, NCI, 2024)

Test system: 188146-221-R-J1-PDC complex spheroid viability
Experiment: Anticancer human tumor 188146-221-R-J1-PDC patient-derived colon adenocarcinoma cell line growth inhibition [POLQ]
Conditions: for IC50: curve of first compound; for viability, T/C: stronger effect = lower value
In short: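 Complex spheroid viability model combining PDC tumour cells with endothelial (HUVEC) and MSC stromal cells. Novobiocin, ART-558 or RP6685 were tested singly and in combination with standard and investigational anticancer drugs. Each was titrated in half-log steps from near clinical Cmax, or from 10 microM where Cmax was unknown.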

[1] = second compound 0.0316 µM, first compound 0.0316 µM
[2] = second compound 0.0316 µM, first compound 0.1 µM
[3] = second compound 0.0316 µM, first compound 0.316 µM
[4] = second compound 0.0316 µM, first compound 1 µM
[5] = second compound 0.0316 µM, first compound 3.16 µM
[6] = second compound 0.0316 µM, first compound 10 µM
[7] = second compound 0.1 µM, first compound 0.0316 µM
[8] = second compound 0.1 µM, first compound 0.1 µM
[9] = second compound 0.1 µM, first compound 0.316 µM
[10] = second compound 0.1 µM, first compound 1 µM
[11] = second compound 0.1 µM, first compound 3.16 µM
[12] = second compound 0.1 µM, first compound 10 µM
[13] = second compound 0.316 µM, first compound 0.0316 µM
[14] = second compound 0.316 µM, first compound 0.1 µM
[15] = second compound 0.316 µM, first compound 0.316 µM
[16] = second compound 0.316 µM, first compound 1 µM
[17] = second compound 0.316 µM, first compound 3.16 µM
[18] = second compound 0.316 µM, first compound 10 µM
[19] = second compound 1 µM, first compound 0.0316 µM
[20] = second compound 1 µM, first compound 0.1 µM
[21] = second compound 1 µM, first compound 0.316 µM
[22] = second compound 1 µM, first compound 1 µM
[23] = second compound 1 µM, first compound 3.16 µM
[24] = second compound 1 µM, first compound 10 µM
[25] = second compound 3.16 µM, first compound 0.0316 µM
[26] = second compound 3.16 µM, first compound 0.1 µM
[27] = second compound 3.16 µM, first compound 0.316 µM
[28] = second compound 3.16 µM, first compound 1 µM
[29] = second compound 3.16 µM, first compound 3.16 µM
[30] = second compound 3.16 µM, first compound 10 µM
[31] = second compound 10 µM, first compound 0.0316 µM
[32] = second compound 10 µM, first compound 0.1 µM
[33] = second compound 10 µM, first compound 0.316 µM
[34] = second compound 10 µM, first compound 1 µM
[35] = second compound 10 µM, first compound 3.16 µM
[36] = second compound 10 µM, first compound 10 µM
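Also: spheroids exposed to compounds for seven days.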
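For viability, T/C in this document: 100% = DMSO vehicle control viability.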

COc1cc2cc(C(=O)CCC(=O)O)sc2cc1OC + Cc1cccc(N(C)C(=O)C2C(O)CCN2c2nc(C)cc(C(F)(F)F)c2C#N)c1
IC50 (second compound 0.0316 µM): > 10 µM | IC50 (second compound 0.1 µM): > 10 µM | IC50 (second compound 0.316 µM): > 10 µM | IC50 (second compound 1 µM): > 10 µM | IC50 (second compound 3.16 µM): > 10 µM | IC50 (second compound 10 µM): > 10 µM | viability, T/C [1]: 95.5% | viability, T/C [2]: 109% | viability, T/C [3]: 94.2% | viability, T/C [4]: 91.3% | viability, T/C [5]: 103% | viability, T/C [6]: 93.5% | viability, T/C [7]: 102% | viability, T/C [8]: 100% | viability, T/C [9]: 109% | viability, T/C [10]: 97.8% | viability, T/C [11]: 97.5% | viability, T/C [12]: 105% | viability, T/C [13]: 95.9% | viability, T/C [14]: 98.7% | viability, T/C [15]: 93.2% | viability, T/C [16]: 94% | viability, T/C [17]: 96.1% | viability, T/C [18]: 99% | viability, T/C [19]: 94.1% | viability, T/C [20]: 80.5% | viability, T/C [21]: 93.6% | viability, T/C [22]: 96.6% | viability, T/C [23]: 112% | viability, T/C [24]: 92.7% | viability, T/C [25]: 100% | viability, T/C [26]: 107% | viability, T/C [27]: 84.8% | viability, T/C [28]: 88.6% | viability, T/C [29]: 92.5% | viability, T/C [30]: 86.9% | viability, T/C [31]: 101% | viability, T/C [32]: 96.2% | viability, T/C [33]: 92.3% | viability, T/C [34]: 88.7% | viability, T/C [35]: 88.8% | viability, T/C [36]: 103%

CC1COCCN1c1cc(C2(S(C)(=N)=O)CC2)nc(-c2ccnc3[nH]ccc23)n1 (centres undefined) + COC1C(OC(N)=O)C(O)C(Oc2ccc3c(O)c(NC(=O)c4ccc(O)c(CC=C(C)C)c4)c(=O)oc3c2C)OC1(C)C
IC50 (second compound 0.0316 µM): 4.2 µM | IC50 (second compound 0.1 µM): 4.04 µM | IC50 (second compound 0.316 µM): 4.05 µM | IC50 (second compound 1 µM): 4.53 µM | IC50 (second compound 3.16 µM): 3.45 µM | IC50 (second compound 10 µM): 3.16 µM | viability, T/C [1]: 102% | viability, T/C [2]: 95.8% | viability, T/C [3]: 98.7% | viability, T/C [4]: 94.2% | viability, T/C [5]: 58.6% | viability, T/C [6]: 23.6% | viability, T/C [7]: 114% | viability, T/C [8]: 100% | viability, T/C [9]: 90.5% | viability, T/C [10]: 72.5% | viability, T/C [11]: 62.2% | viability, T/C [12]: 26.8% | viability, T/C [13]: 96.2% | viability, T/C [14]: 97.3% | viability, T/C [15]: 94.7% | viability, T/C [16]: 84.8% | viability, T/C [17]: 56.4% | viability, T/C [18]: 27% | viability, T/C [19]: 97.1% | viability, T/C [20]: 104% | viability, T/C [21]: 88.6% | viability, T/C [22]: 87.1% | viability, T/C [23]: 61.2% | viability, T/C [24]: 23.9% | viability, T/C [25]: 101% | viability, T/C [26]: 100% | viability, T/C [27]: 84.2% | viability, T/C [28]: 69.4% | viability, T/C [29]: 54% | viability, T/C [30]: 26.8% | viability, T/C [31]: 102% | viability, T/C [32]: 88.8% | viability, T/C [33]: 103% | viability, T/C [34]: 74.5% | viability, T/C [35]: 51.9% | viability, T/C [36]: 24%
